Experimental data: ChEMBL document CHEMBL5247607, “Design, synthesis and biological evaluation of a new series of arylidene indanones as small molecules for targeted therapy of non-small cell lung carcinoma and prostate cancer” (Eur J Med Chem, 2022)
The source made the active and inactive calls. No cut-off for these calls is given here.

Columns and labels:
[1] = tested on: A549; assay: Cytotoxicity against human A549 cells assessed as inhibition of cell growth incubated for 24 hrs by MTT assay; type: functional, cell-based; settings: A549, 24 h
[2] = tested on: PANC-1; assay: Cytotoxicity against human PANC-1 cells assessed as inhibition of cell growth incubated for 24 hrs by MTT assay; type: functional, cell-based; settings: PANC-1, 24 h
[3] = target: Procathepsin L (Homo sapiens) (UniProt P07711); assay: Inhibition of cathepsin L (unknown origin) at 100 uM
Sequence of Procathepsin L (Homo sapiens) (P07711 114-333 limits assumed): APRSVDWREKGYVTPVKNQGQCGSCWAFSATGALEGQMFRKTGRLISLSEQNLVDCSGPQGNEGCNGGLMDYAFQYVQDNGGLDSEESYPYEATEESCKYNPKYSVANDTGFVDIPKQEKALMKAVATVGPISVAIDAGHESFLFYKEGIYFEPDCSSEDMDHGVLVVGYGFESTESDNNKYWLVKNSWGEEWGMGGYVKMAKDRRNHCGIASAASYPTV

[4] = target: Cathepsin D (Homo sapiens) (UniProt P07339); assay: Inhibition of cathepsin D (unknown origin) at 100 uM
Sequence of Cathepsin D (Homo sapiens) (P07339 65-162 limits assumed): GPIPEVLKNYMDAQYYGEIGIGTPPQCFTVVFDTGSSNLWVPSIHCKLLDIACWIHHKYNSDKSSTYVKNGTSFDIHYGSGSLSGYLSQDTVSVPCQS
Sequence of Cathepsin D (Homo sapiens) (P07339 169-412 limits assumed): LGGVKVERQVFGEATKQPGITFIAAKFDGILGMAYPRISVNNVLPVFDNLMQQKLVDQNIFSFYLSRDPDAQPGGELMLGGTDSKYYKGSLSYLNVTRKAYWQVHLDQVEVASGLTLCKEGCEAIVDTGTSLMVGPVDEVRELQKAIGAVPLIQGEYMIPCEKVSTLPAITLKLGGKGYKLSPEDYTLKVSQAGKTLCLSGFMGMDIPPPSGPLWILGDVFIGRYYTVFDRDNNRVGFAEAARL

[5] = Cytotoxicity against human hTERT-HPNE cells assessed as inhibition of cell growth incubated for 24 hrs by MTT assay; type: toxicity, cell-based
[6] = Selectivity index, ratio of IC50 for cytotoxicity against human CCD 19Lu cells to IC50 for cytotoxicity against human A549 cells; type: toxicity, cell-based; settings: CCD 19Lu cells versus A549 cells, read-out: Ratio IC50
[7] = Cytotoxicity against human CCD 19Lu cells assessed as inhibition of cell growth incubated for 24 hrs by MTT assay; type: toxicity, cell-based
[8] = target: Cathepsin D (Homo sapiens) (UniProt P07339); assay: Inhibition of cathepsin D (unknown origin) at 100 uM relative to control
[9] = Selectivity index, ratio of IC50 for cytotoxicity against human hTERT-HPNE cells to IC50 for cytotoxicity against human PANC-1 cells; type: toxicity, cell-based; settings: hTERT-HPNE cells versus PANC-1 cells, read-out: Ratio IC50
[10] = target: Procathepsin L (Homo sapiens) (UniProt P07711); assay: Inhibition of cathepsin L (unknown origin) at 100 uM relative to control

SMILES	IC50 [1] [µM]	IC50 [2] [µM]	inhibition [3]	inhibition [4]	IC50 at 24 h [5] [µM]	selectivity ratio [6]	IC50 at 24 h [7] [µM]	inhibition [8] [%]	selectivity ratio [9]	inhibition [10] [%]
CC(=O)Nc1ccc(/C=C2\Cc3cc4c(cc3C2=O)OCO4)cc1	115	160	inactive	inactive	57	> 13.5	> 1560	–	–	–
O=C1/C(=C/c2ccc(N3CCCCC3)cc2)Cc2cc3c(cc21)OCO3	16.3	360	inactive	–	1180	–	< 11.2	39.1	3.28	–
O=C1/C(=C/c2ccc(-n3ccnc3)cc2)Cc2cc3c(cc21)OCO3	132	71.1	–	inactive	153	> 11.4	> 1510	–	2.16	24.8
O=C1/C(=C/c2ccc(N3CCOCC3)cc2)Cc2cc3c(cc21)OCO3	55.8	219	inactive	–	1210	> 25.6	> 1430	34.9	5.52	–
